Results published in ChEMBL document CHEMBL4190244, “Perylenyltriazoles inhibit reproduction of enveloped viruses” (Eur J Med Chem, 2017).

Key:
[1] = Cytotoxicity against PEK cells after 24 hrs; assay type: cell-based, Sus scrofa; conditions: pig
[2] = Cytotoxicity against PEK cells after 7 days; assay type: cell-based, Sus scrofa; conditions: pig
[3] = system: Tick-borne encephalitis virus; experiment: Antiviral activity against TBEV Absettarov infected in PEK cells preincubated simultaneously with cells and virus for 1 hr with shaking every 15 to 20 mins measured after 6 days by gentian violet-staining based assay; assay type: functional, organism-based

| Structure (SMILES) | CC50 at 24 h [1] | CC50 at 168 h [2] | EC50 [3] |
| --- | --- | --- | --- |
| O=c1[nH]c(=O)n([C@H]2C[C@H](O)[C@@H](CO)O2)cc1-n1cc(-c2ccc3c4cccc5cccc(c6cccc2c63)c54)nn1 | > 50 µM | > 50 µM | 0.038 µM |
| O=c1[nH]c(=O)n([C@@H]2O[C@H](CO)[C@@H](O)[C@H]2O)cc1-n1cc(-c2ccccc2)nn1 | > 50 µM | > 50 µM | > 50 µM |
| O=c1[nH]c(=O)n([C@@H]2O[C@H](CO)[C@@H](O)[C@H]2O)cc1-n1cc(-c2ccc3c4cccc5cccc(c6cccc2c63)c54)nn1 | > 50 µM | > 50 µM | 0.031 µM |
| OCCn1cc(-c2cc3cccc4c5cccc6cccc(c(c2)c34)c65)nn1 | > 50 µM | > 50 µM | 0.023 µM |
| O=c1[nH]c(=O)n([C@H]2C[C@H](O)[C@@H](CO)O2)cc1-n1cc(-c2cc3cccc4c5cccc6cccc(c(c2)c34)c65)nn1 | > 50 µM | > 50 µM | 0.06 µM |
| OCCn1cc(-c2ccc3c4cccc5cccc(c6cccc2c63)c54)nn1 | > 50 µM | > 50 µM | 0.1 µM |
| O=c1[nH]c(=O)n([C@@H]2O[C@H](CO)[C@@H](O)[C@H]2O)cc1-n1cc(-c2cc3cccc4c5cccc6cccc(c(c2)c34)c65)nn1 | > 50 µM | > 50 µM | 0.06 µM |
| O=c1[nH]c(=O)n([C@H]2C[C@H](O)[C@@H](CO)O2)cc1-n1cc(-c2ccccc2)nn1 | > 50 µM | > 50 µM | > 50 µM |
